Assays:
Assay in all cases: relative viability (nuclei count vs DMSO), 5 days (fraction); higher = more cells survive
BI-D1870 + Foretinib = compound: CC(C)CCN1c2nc(Nc3cc(F)c(O)c(F)c3)ncc2N(C)C(=O)C1C [BI-D1870] + COc1cc2c(Oc3ccc(NC(=O)C4(C(=O)Nc5ccc(F)cc5)CC4)cc3F)ccnc2cc1OCCCN1CCOCC1 [Foretinib] (partner 0.25 µM)
How it was run: (§1)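 Relative viability was taken as the ratio of nuclei in treated wells to nuclei in vehicle wells. Lung cancer cell lines in 1536-well plates received compounds by pin tool one day after seeding, either one drug alone or a fixed anchor-drug dose plus five library-drug doses (not always all listed) in √10 steps. Nuclei were counted on 4× images after 5 days of treatment, and values are medians of duplicate plates.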

Zebularine + Lapatinib = compound: O=c1ncccn1[C@@H]1O[C@H](CO)[C@@H](O)[C@H]1O [Zebularine] + CS(=O)(=O)CCNCc1ccc(-c2ccc3ncnc(Nc4ccc(OCc5cccc(F)c5)c(Cl)c4)c3c2)o1 [Lapatinib] (partner 2 µM)
How it was run: as §1

Zebularine + Pemetrexed = compound: O=c1ncccn1[C@@H]1O[C@H](CO)[C@@H](O)[C@H]1O [Zebularine] + Nc1nc2[nH]cc(CCc3ccc(C(=O)N[C@@H](CCC(=O)O)C(=O)O)cc3)c2c(=O)[nH]1 [Pemetrexed] (partner 0.2 µM)
How it was run: as §1

Zebularine + OSI-027 = compound: O=c1ncccn1[C@@H]1O[C@H](CO)[C@@H](O)[C@H]1O [Zebularine] + COc1cccc2cc(-c3nc([C@H]4CC[C@H](C(=O)O)CC4)n4ncnc(N)c34)[nH]c12 [OSI-027] (partner 0.5 µM)
How it was run: as §1

Row | Cell Line | relative viability (BI-D1870 + Foretinib; first compound 0.04 µM) | relative viability (BI-D1870 + Foretinib; first compound 0.1265 µM) | relative viability (BI-D1870 + Foretinib; first compound 0.4 µM) | relative viability (BI-D1870 + Foretinib; first compound 1.265 µM) | relative viability (BI-D1870 + Foretinib; first compound 4 µM) | relative viability (Zebularine + Lapatinib; first compound 1 µM) | relative viability (Zebularine + Lapatinib; first compound 3.162 µM) | relative viability (Zebularine + Lapatinib; first compound 10 µM) | relative viability (Zebularine + Lapatinib; first compound 31.62 µM) | relative viability (Zebularine + Lapatinib; first compound 100 µM) | relative viability (Zebularine + Pemetrexed; first compound 1 µM) | relative viability (Zebularine + Pemetrexed; first compound 3.162 µM) | relative viability (Zebularine + Pemetrexed; first compound 10 µM) | relative viability (Zebularine + Pemetrexed; first compound 31.62 µM) | relative viability (Zebularine + Pemetrexed; first compound 100 µM) | relative viability (Zebularine + OSI-027; first compound 1 µM) | relative viability (Zebularine + OSI-027; first compound 3.162 µM) | relative viability (Zebularine + OSI-027; first compound 10 µM) | relative viability (Zebularine + OSI-027; first compound 31.62 µM) | relative viability (Zebularine + OSI-027; first compound 100 µM)
1 | LOU-NH91 | 0.979 | 0.897 | 0.876 | 1.01 | 0.817 | 0.715 | 0.731 | 0.712 | 0.705 | 0.606 | 0.368 | 0.415 | 0.419 | 0.355 | 0.398 | 0.746 | 0.7 | 0.66 | 0.699 | 0.571
2 | LU99A | 0.913 | 0.683 | 0.696 | 0.788 | 0.796 | 1.14 | 0.838 | 0.615 | 0.421 | 0.176 | 0.182 | 0.236 | 0.162 | 0.134 | 0.146 | 0.314 | 0.278 | 0.284 | 0.294 | 0.216
3 | LXF-289 | 1.01 | 0.942 | 0.956 | 0.941 | 0.88 | 0.986 | 0.92 | 0.818 | 0.783 | 0.271 | 0.919 | 0.879 | 0.895 | 0.702 | 0.403 | 0.827 | 0.69 | 0.626 | 0.564 | 0.329
4 | NCI-H23 | 1 | 1.03 | 0.986 | 0.83 | 0.781 | 1.15 | 1.12 |  | 1.21 | 0.756 | 0.777 | 0.706 |  | 0.649 | 0.494 | 0.674 | 0.55 | 0.368 | 0.628 | 0.518
5 | NCI-H322M | 1.06 | 0.805 | 0.868 | 0.87 | 0.696 | 0.608 | 0.589 | 0.586 | 0.601 | 0.576 | 0.595 | 0.565 | 0.501 | 0.635 | 0.59 | 0.524 | 0.531 | 0.47 | 0.5 | 0.521
6 | NCI-H358 | 0.657 | 0.529 | 0.669 | 0.752 | 0.433 | 0.48 | 0.401 | 0.44 | 0.467 | 0.303 | 0.159 | 0.187 | 0.161 | 0.162 | 0.179 | 0.862 | 0.474 | 0.378 | 0.286 | 0.177
7 | NCI-H460 | 1.09 | 0.869 | 0.974 | 1.06 | 0.305 | 1.05 | 0.897 | 0.255 | 0.294 | 0.0468 | 0.0616 | 0.0545 | 0.08 | 0.076 | 0.0682 | 0.971 | 0.707 | 0.336 | 0.18 | 0.0887
8 | NCI-H520 | 0.821 | 0.724 | 0.741 | 0.958 | 0.818 | 1.14 | 0.863 | 0.477 | 0.277 | 0.256 | 0.687 | 0.588 | 0.374 | 0.239 | 0.215 | 0.281 | 0.23 | 0.266 | 0.298 | 0.239
9 | NCI-H596 | 0.882 | 0.918 | 0.889 | 0.849 | 0.958 | 1.19 | 1.11 | 0.759 | 1.18 | 1 | 0.478 | 0.513 | 0.428 | 0.42 | 0.494 | 0.696 | 0.78 | 0.593 | 0.708 | 0.559
10 | NCI-H647 | 1.11 | 1.18 | 1.13 | 1.35 | 1.17 | 1.35 | 1.03 | 0.227 | 0.212 | 0.14 | 0.18 | 0.183 | 0.149 | 0.115 | 0.115 | 0.717 | 0.676 | 0.363 | 0.186 | 0.16
11 | NCI-H650 | 1.03 | 0.937 | 0.968 | 1.04 | 0.894 | 1.32 | 0.805 | 0.496 | 0.565 | 0.276 | 0.918 | 1.03 | 0.757 | 0.454 | 0.286 | 0.54 | 0.524 | 0.437 | 0.356 | 0.26
12 | NCI-H661 | 1.02 | 0.989 | 1.04 | 1.03 | 0.969 | 0.443 | 0.463 | 0.461 | 0.436 | 0.583 | 0.939 | 0.951 | 0.832 | 0.995 | 0.891 | 0.794 | 0.671 | 0.591 | 0.764 | 0.627
13 | NCI-H838 | 1.12 | 1.01 | 1.05 | 1.16 | 1.15 | 1.19 | 1.14 | 0.632 | 0.834 | 0.382 | 0.259 | 0.267 | 0.234 | 0.221 | 0.17 | 0.405 | 0.377 | 0.355 | 0.348 | 0.258
14 | NCI-H1355 | 1.05 | 0.863 | 0.91 | 1.07 | 0.967 | 1.31 | 0.851 | 0.854 | 0.681 | 0.357 | 1.04 | 1.02 | 0.802 | 0.623 | 0.303 | 0.435 | 0.388 | 0.357 | 0.494 | 0.381
15 | NCI-H1395 | 1.03 | 0.92 | 0.964 | 1.05 | 0.981 | 1.27 | 1.04 | 0.799 | 0.702 | 0.507 | 1.05 | 0.787 | 0.661 | 0.749 | 0.489 | 0.65 | 0.58 | 0.553 | 0.531 | 0.429
16 | NCI-H1437 | 1.35 | 1.24 | 1.19 | 1.25 | 1.14 | 0.925 | 0.934 |  | 0.787 | 0.333 | 0.322 | 0.335 | 0.276 | 0.295 | 0.275 | 0.926 | 0.933 | 0.761 | 0.859 | 0.611
